Results on one compound are retold here after patent US9629942B2, “Limus-coated medical devices” (Innora GmbH, priority 2010, dated 2017).

Data set [1] is described as follows: Stability of sirolimus on a balloon catheter. The class given is physicochemical. The settings on record: at the dose level applied. As for the experimental part:
Balloons for percutaneous transluminal coronary angioplasty (Cordis Fire Star catheters, Cordis Corp., USA) were coated either with sirolimus alone or combined with different amounts of BHT. Coated balloons were tested in respect of sirolimus loss during the passage through a hemostatic valve, Medtronic Launcher JL 3.5 6F guiding catheter, and one minute in stirred blood (37° C.).

The next data set relates to neointimal proliferation. As to the kind of experiment: Inhibition of neointimal proliferation. It counts as in vivo. The settings on record: BHT without sirolimus, at the dose level applied.

As to `Cc1cc(C(C)(C)C)c(O)c(C(C)(C)C)c1` [BHT, butylated hydroxytoluene], the “Effect of BHT on stability of sirolimus on a balloon catheter” value in data set [1] is “does not significantly increase the stability of sirolimus”. For the same compound, the “Inhibition of neointimal proliferation” value with neointimal proliferation is “does not inhibit neointimal proliferation”.
